Laboratory results reported in patent publication US9359196B2, “Antiproliferative compositions comprising curcumin analogs and methods of producing and using same” (The Board of Regents of the University of Oklahoma, priority 2009, dated 2016).

Key:
Nrf2 = test: Nuclear extract immunoblot of phospho-Nrf2; type: cell-based, human; settings: H441 cells, nuclear fraction
Experimental: Nuclear extract and immunoblotting: Nuclear extract was prepared using a kit from Active Motif (Carlsbad, Calif.) following the manufacturer's instructions. Briefly, H441 cells were allowed to grow for 24 h in 6-well plates before treatment with CLEFMA. After 12 or 24 h, the cells were scraped into ice-cold PBS and centrifuged at 300×g for 5 min to obtain a pellet. The pelleted cells was resuspended in a hypotonic buffer (20 mM HEPES, pH 7.5, 5 mM NaF, 0.1 mM EDTA, and 0.01 mM Sodium molybdate) and allowed to swell for 15 min on ice. The cells were lysed by adding 50 μl 10% Nonidet P-40 and centrifuged for 30 sec to separate the cytoplasmic and nuclear fractions. The nuclear fraction was extracted after 30 min in an ice-cold complete lysis buffer obtained with the kit. The nuclear extract was separated by centrifugation for 10 min at 14,000×g at 4° C. To immunoblot nuclear factor-erythroid 2-related factor 2 (Nrf2), the nuclear protein (10 μg) was separated on a 4/20% SDS-PAGE gel, transferred onto nitrocellulose membrane and probed with rabbit anti-phospho-Nrf2 antibody and HRP-conjugated goat anti-rabbit IgG antibody. The chemiluminescence signal was developed by Pierce SuperSignal West Femto reagent (Thermo Scientific, Rockford, Ill.). Equal protein loading was confirmed by stripping the blot and re-probing it with anti-actin antibody. […]

[1] = system: Human lung adenocarcinoma cell line NCI-H441; test: In vitro anti-proliferative activity in H441 cells (hexosaminidase), Example 2; type: cell-based
Experimental: Human lung adenocarcinoma cell line NCI-H441 (ATCC # HTB-174) and normal lung fibroblasts LL-24 (ATCC #CCL-151) were obtained from American Type Culture Collection (Manassas, Va.). The cells were maintained at 37° C. with 5% CO2 in RPMI 1640 medium (Invitrogen, Carlsbad, Calif.). The medium was supplemented with 10% heat-inactivated fetal bovine serum and 50 μg/ml of gentamicin (GIBCO Laboratories, Grand Island, N.Y.). For cell proliferation assay, the cells were seeded in 96-well flat-bottom tissue culture plates at a density of 0.5−1×10^4 cells per well. The cells were allowed to adhere and grow overnight, followed by treatment with CLEFMA or CLEFMA-liposomes. The concentration of CLEFMA was maintained in the range of 0.1-25 μM in 100 μl of RPMI 1640 medium. For comparison, the cells were also treated with 1 and 10 μM natural curcumin and EF24. EF24 is a potent synthetic curcuminoid and a close analog of CLEFMA [Adams et al., 2004]. All solutions of plain drugs were made in dimethylsulfoxide (DMSO). The concentration of DMSO in the treatment medium was maintained at 0.1%. The control wells received equivalent amounts of DMSO or phospholipid-matched control liposomes. Inhibition of cell proliferation was determined by measuring a decrease in hexosaminidase activity as described by Landegren [Landegren, 1984]. Para-nitrophenol-N-acetyl-beta-D-glucosaminide (60 μl per well) was used as the substrate for the hexosaminidase enzyme. The results of hexosaminidase assay were also confirmed by visualization of cultured cells under a microscope.

[2] = system: CCL-151 normal lung fibroblasts; test: Reactive oxygen species assay (DCFH-DA) in CCL-151 normal lung fibroblasts; type: cell-based
Experimental: Reactive oxygen species (ROS) assay: The CLEFMA-induced generation of ROS in H441 and CCL-151 cells was measured using the OxiSelect assay kit (Cell Biolabs, Inc., San Diego, Calif.). Briefly, the cells were cultured in 96-well plates, and the cell-permeable fluorogenic probe 2′,7′-dichlorodihydrofluorescin diacetate (DCFH-DA) was added to the wells and the plate was incubated for 30-60 min. The wells were washed thrice with PBS and treated with CLEFMA in culture medium for 24 and 48 h. After the incubation period, the medium was removed and the cells were gently washed 2-3 times with PBS, and the fluorescence, indicating ROS activity, was measured at 480 nm/530 nm (excitation/emission wavelengths) using the Cytoflour 2300 (Millipore, Billerica, Mass.).

[3] = system: PC-3 (prostate cancer) cells; test: Cell proliferation study in PC-3 cells; type: cell-based
Experimental: Cell Culture and drug treatment: Human lung adenocarcinoma cell line NCI-H441 (ATCC Number: HTB-174) was obtained from the American Type Culture Collection (Manassas, Va.). H441 cells were maintained at 37° C. with 5% CO2 in McCoy's 5A Medium (Invitrogen, Carlsbad, Calif.) supplemented with 5% heat-inactivated fetal bovine serum (FBS). All media contained gentamicin at 50 μg/ml (GIBCO Laboratories, Grand Island, N.Y.). Other cells lines (PANC-1, MiaPaCa-2 and PC-3) were also similarly maintained, except that the cell culture medium was RPMI 1640 instead of McCoy's.
To evaluate the anti-proliferative activity of synthesized bis(2-fluorobenzylidene)-4-piperidone and its derivatives, the cells were seeded in 96-well flat-bottom tissue culture plates at a density of 10×10^3 cells per well. The cells were allowed to attach and grow overnight. The test compounds were solubilized in dimethyl sulfoxide (DMSO), filtered through 0.2 μm nylon filter and added to cells at 1, 10, 25 and 100 μM concentrations in culture medium supplemented with 5% FBS. […]
Cell Proliferation: The total number of cells after the treatment period was estimated by the hexosaminidase assay. […] The absorbance was measured at 405 nm. […] The data were analyzed as percent of control, where the control wells were treated with equivalent amounts of DMSO alone, and the analyzed data was presented as average±standard error of mean. […]

O=C(O)C=CC(=O)N1CC(=Cc2ccccc2Cl)C(=O)C(=Cc2ccccc2Cl)C1 [Compound 29, 4-[3,5-Bis-(2-chlorobenzylidene)-4-oxo-piperidin-1-yl]-4-oxo-2-butenoic acid]
Nrf2 activation and nuclear translocation (Nrf2): activated Nrf2 and caused its translocation into the nuclear fraction
anti-proliferative activity in H441 cells [1]: more potent than curcumin and another synthetic curcuminoid EF24
H441 cells surviving ([1]; 24 h treatment with 10 μM): Less than 40%
ROS production [2]: did not increase ROS production in normal lung fibroblasts
potency of antiproliferative action [3]: enhanced the potency of antiproliferative action
